Laboratory results from patent US20140079836A1, “METHODS AND COMPOSITIONS FOR ALTERING HEALTH, WELLBEING, AND LIFESPAN” (LifeSpan Extension, LLC, priority 2008, published 2014).
Where “and” joins values, the source holds several entries; their conditions need not be identical. Identical values can stand only once.

Tested on: entire human genome (gene expression profile)
Assay: Agilent whole human genome array, skin fibroblasts AG07999, antioxidant with or without UV
Type: cell-based
Procedure: Cell cultures: A human skin fibroblast cell culture was obtained through the Coriell Cell Repository from the National Institute on Aging Cell Repository. […] Culture media: Cells were grown in Minimal Essential Medium supplemented with 10% fetal bovine serum, 2 mM L-glutamine, 2 mM Glutamax I. […] All cultures were incubated at 37° C. with 5% CO2 in a humidified chamber. […] On Day 5 after 24 hours of exposure to test conditions, the cells were isolated and the RNA isolated using the RT^2q PCR-grade RNA isolation kit (Superarray Bioscience Corporation). […] Analysis of Agilent Whole Human Genome Arrays: RNA taken from both samples was sent to Cogenics, Inc. Morrisville, N.C. Cogenics, Inc. is a leading, state-of-the-art, microarray service provider that facilitates and accelerates transcriptome profiling and gene discovery processes for industrial and academic researchers. Cogenics' procedure for processing samples is as follows: RNA samples are received and analyzed by Cogenics, Inc. using rigorous standardized procedures that are designed to ensure quality and chain of custody. Each sample undergoes a thorough quality analysis using an Agilent Bioanalyzer microfluidics device, and is precisely quantified using a Nanodrop-1000 spectro-photometer. When the Agilent Oligonucleotide Microarray Platform is utilized, samples are fluorescently labeled using the Agilent Low-Input Linear Amplification Kit. Upon completion of this process, the labeled cRNA products are assessed using the same processes described above. These labeled samples are then fragmented and hybridized to oligonucleotide microarrays. The microarrays are washed and then scanned using an Agilent DNA Microarray Scanner with Sure Scan technology. Data is extracted from the images produced by the scanner using Agilent's Feature Extraction software. At this point, the scanned image is visually inspected for defects, and the extracted data is statistically analyzed to ensure quality of the assay. Extracted data and images can be loaded into Rosetta Resolver Gene Expression Data Analysis System for in-depth analysis, both from a quality standpoint, as well as to develop biological understanding. […] A table was generated and provided as a tab-delimited text file. This file will contain the log ratio, fold-change, log ratio p-value, etc. for every transcript measured by the microarray. Using Rosetta Resolver, a single ratio comparison was compiled based on the results of the two fluorophore reversal hybridization performed in the context of this project. The ratios were calculated such that the Tx sample was in the numerator and the UnTx sample was in the denominator. A table was generated, saved as tab-delimited text files, and is provided on the DVD that accompanied this report in the “Objective—1” subdirectory or the “Data_Analysis” directory. These files contain the log ratio, fold-change, log ratio p-value, etc. for every transcript present on the microarray. […] A table for will be generated and provided as a tab-delimited text file. The file will contain the log ratio, fold-change, log ratio p-value, etc. for only the differentially expressed transcripts within the context of the comparison. […] These criteria were applied to the comparison made in Objective 1. A table was generated, saved as tab-delimited text files, and is provided on the DVD that accompanied this report in the “Objective—1” subdirectory or the “Data_Analysis” directory. […] Cell cultures: A human skin fibroblast cell culture (or cultures) will be obtained through the Coriell Cell Repository from the National Institute on Aging Cell Repository. […] Culture media: Cells will be grown in Minimal Essential Medium supplemented with 10% fetal bovine serum, 2 mM L-glutamine, 2 mM Glutamax I.

COC1=C(OC)C(=O)C(CCCCCCCCCCO)=C(C)C1=O [Idebenone, 6-(10-hydroxydecyl)-2,3-dimethoxy-5-methyl-1,4-benzoquin-one]
fold change of gene expression (sequence name in c0), Idebenone + UVB: n.s. | ABL1 Expression (Alone): 1.0 | ACE Expression (Alone): −1.0 | ACTB Expression (Alone): 1.1 and 1.0 | AK3 Expression (Alone): 1.0 | ALDOA Expression (Alone): 1.0 | ANKRD17 Expression (Alone): −1.0 | APEX1 Expression (Alone): 1.2 | APEX2 Expression (Alone): −1.1 | APOE Expression (Alone): 1.0 | ATF2 Expression (Alone): 1.1 | ATIC Expression (Alone): 1.0 | ATM Expression (Alone): 1.2 | ATR Expression (Alone): 1.2 | ATRX Expression (Alone): 1.0 | ATXN3 Expression (Alone): −1.1 | B2M Expression (Alone): −1.0 | BARD1 Expression (Alone): 1.4 | BAX Expression (Alone): 1.3 | BCL2 Expression (Alone): 1.0 | BLM Expression (Alone): 1.0 | BPNT1 Expression (Alone): −1.2 | BRCA1 Expression (Alone): −1.0 | BRCA2 Expression (Alone): 1.1 | BRIP1 Expression (Alone): 1.0 | BTG2 Expression (Alone): 1.0 | CASP2 Expression (Alone): 1.0 | CASP9 Expression (Alone): −1.0 | CCNH Expression (Alone): −1.1 | CDA Expression (Alone): −1.5 | CDK7 Expression (Alone): 1.0 | CDKN1A Expression (Alone): 1.2 | CDKN2A Expression (Alone): 1.0 | CETN2 Expression (Alone): 1.1 | CHEK1 Expression (Alone): −1.5 | CHEK2 Expression (Alone): 1.1 | CHUK Expression (Alone): 1.0 | CIB1 Expression (Alone): 1.0 | CIDEA Expression (Alone): 1.3 | CIDEB Expression (Alone): −1.2 | CLK1 Expression (Alone): 1.0 | CREBBP Expression (Alone): −1.0 | CRY1 Expression (Alone): 1.0 | CRY2 Expression (Alone): −1.1 | CSF2 Expression (Alone): 2.4 | CTPS Expression (Alone): 1.0 | CYP19A1 Expression (Alone): 1.4 | DCLRE1C Expression (Alone): 1.0 | DDB1 Expression (Alone): 1.9 | DDB2 Expression (Alone): 1.0 | DDC Expression (Alone): 1.0 | DDIT3 Expression (Alone): 1.1 | DHFR Expression (Alone): 1.0 | DKC1 Expression (Alone): 1.0 | DMC1 Expression (Alone): 1.1 | DPYS Expression (Alone): 1.1 | DUT Expression (Alone): 1.5 | E2F1 Expression (Alone): −1.5 | E2F2 Expression (Alone): −1.1 | E2F3 Expression (Alone): −1.5 | ENTPD4 Expression (Alone): 1.1 | ERCC1 Expression (Alone): 1.2 | ERCC2 Expression (Alone): 1.0 | ERCC3 Expression (Alone): −1.0 | ERCC4 Expression (Alone): −1.1 | ERCC5 Expression (Alone): 1.0 | ERCC6 Expression (Alone): 1.4 | ERCC8 Expression (Alone): −1.1 | ERH Expression (Alone): 1.0 | EXO1 Expression (Alone): 1.1 | FANCA Expression (Alone): 1.0 | FANCC Expression (Alone): −1.0 | FANCF Expression (Alone): −1.1 | FANCG Expression (Alone): 1.1 | FEN1 Expression (Alone): −1.0 | FPGS Expression (Alone): 1.2 | GADD45A Expression (Alone): −1.1 | GADD45G Expression (Alone): 1.0 | GAPDH Expression (Alone): −1.1 | GDA Expression (Alone): 1.0 | GH1 Expression (Alone): 1.0 | GML Expression (Alone): −1.3 | GMPR Expression (Alone): 1.0 | GTF2H1 Expression (Alone): 1.1 | GTF2H2 Expression (Alone): −1.2 | GTF2H3 Expression (Alone): 1.0 | GTF2H4 Expression (Alone): −1.4 | GTSE1 Expression (Alone): −1.1 | HK1 Expression (Alone): −1.1 | HLA-DRA Expression (Alone): 1.0 | HPRT1 Expression (Alone): 1.2 and 1.1 | HSP90AB1 Expression (Alone): 1.1 | HSPA1A Expression (Alone): 1.4 | HSPA1L Expression (Alone): 1.0 | HTRA1 Expression (Alone): 1.1 | HUS1 Expression (Alone): 1.0 | IFI44 expression (Alone): −1.6 | IGF1 Expression (Alone): 1.0 | IGF2 Expression (Alone): 1.0 | IGHMBP2 Expression (Alone): 1.1 | IHPK3 Expression (Alone): 1.1 | IL1A Expression (Alone): −1.0 | IL6 Expression (Alone): −1.0 | IL10 Expression (Alone): 1.1 | INPPL1 Expression (Alone): −1.2 | JUN Expression (Alone): 1.0 | KRAS Expression (Alone): −1.2 | LIG1 Expression (Alone): 1.0 | LIG3 Expression (Alone): 1.0 | LIG4 Expression (Alone): 1.0 | LTA Expression (Alone): −1.1 | MAP2K6 Expression (Alone): 1.0 | MAPK8 Expression (Alone): −1.3 | MAPK9 Expression (Alone): −1.0 | MAPK12 Expression (Alone): −1.0 | MAPK14 Expression (Alone): 1.0 | MAPKAPK2 Expression (Alone): −1.4 | MAX Expression (Alone): −1.0 | MBD4 Expression (Alone): 1.0 | MCM2 Expression (Alone): 1.4 | MDH1 Expression (Alone): 1.0 | MGMT Expression (Alone): −1.3 | MKI67 Expression (Alone): 1.4 | MLH1 Expression (Alone): 1.0 | MLH3 Expression (Alone): 1.0 | MMP1 Expression (Alone): −1.4 | MMP2 Expression (Alone): −1.1 | MMP3 Expression (Alone): 2.3 | MMP7 Expression (Alone): −1.6 | MMP10 Expression (Alone): 1.0 | MMP11 Expression (Alone): 1.1 | MMP12 Expression (Alone): 1.7 | MMP13 Expression (Alone): 1.0 | MMP14 Expression (Alone): −1.1 | MMP15 Expression (Alone): −1.0 | MNAT1 Expression (Alone): 1.0 | MPG Expression (Alone): 1.0 | MRE11A Expression (Alone): 1.2 | MSH2 Expression (Alone): 1.0 | MSH3 Expression (Alone): 1.1 | MSH4 Expression (Alone): 1.0 | MSH6 Expression (Alone): 1.0 | MSRA Expression (Alone): −1.0 | MT2A Expression (Alone): −1.3 | MTAP Expression (Alone): 1.1 | MUTYH Expression (Alone): −1.0 | MVK Expression (Alone): 1.6 | MYBL2 Expression (Alone): 1.4 | MYCBP Expression (Alone): −1.0 | N4BP2 Expression (Alone): 1.1 | NADSYN1 expression (Alone): 1.2 | NBN Expression (Alone): −1.2 | NCK1 Expression (Alone): 1.0 | NEIL1 Expression (Alone): 1.5 | NEIL2 Expression (Alone): 1.2 | NEIL3 Expression (Alone): −1.0 | NF1 Expression (Alone): −1.1 | NFKB1 expression (Alone): −1.5 | NFKBIA Expression (Alone): 1.0 | NGFR Expression (Alone): 1.0 | NOS2A Expression (Alone): 1.0 | NP Expression (Alone): −1.2 | NR1D1 Expression (Alone): −1.6 | NRG1 Expression (Alone): 1.1 | NTHL1 Expression (Alone): 1.1 | NUDT1 Expression (Alone): 1.3 | NUDT2 Expression (Alone): −1.0 | OAS1 Expression (Alone): 1.3 | OAS2 Expression (Alone): 1.2 | OAS3 Expression (Alone): 1.0 | OGG1 Expression (Alone): −1.3 | PAK1 Expression (Alone): −1.0 | PAPSS1 Expression (Alone): −1.0 | PAPSS2 Expression (Alone): −1.0 | PARP1 Expression (Alone): 1.3 and 1.2 | PARP2 Expression (Alone): 1.3 | PCNA Expression (Alone): −1.0 | PDZK1IP1 Expression (Alone): 1.0 | PITRM1 Expression (Alone): −1.1 | PKM2 Expression (Alone): −1.1 | PLAT Expression (Alone): −1.1 | PLAU Expression (Alone): −1.6 | PLAUR Expression (Alone): −1.1 | PLK1 Expression (Alone): 1.3 | POLA2 Expression (Alone): 1.0 | PPARG Expression (Alone): −1.0 | PPIE Expression (Alone): 1.1 | PRDX6 Expression (Alone): −1.5 | PSMA2 Expression (Alone): 1.1 | PSMA3 Expression (Alone): 1.1 | PSMC6 Expression (Alone): 1.0 | PSMD1 Expression (Alone): −1.0 | PSMD11 Expression (Alone): 1.1 | PSMD12 Expression (Alone): 1.0 | PTGS1 Expression (Alone): 1.2 | RAF1 Expression (Alone): −1.0 | RB1 Expression (Alone): −1.5 | RET Expression (Alone): −1.0 | RORA Expression (Alone): −1.2 | RPL3 Expression (Alone): 1.0 | RPL13A Expression (Alone): −1.0 | RPS9 Expression (Alone): 1.2 | RPS10 Expression (Alone): 1.0 | RRAS Expression (Alone): −1.1 | RRM1 Expression (Alone): −1.0 | S100A7 Expression (Alone): 2.7 | S100A8 Expression (Alone): 1.0 | S100A10 Expression (Alone): −1.7 | S100A11 Expression (Alone): −1.1 | SDS Expression (Alone): −2.0 | SERPINB2 Expression (Alone): −2.9 | SERPINE1 Expression (Alone): −1.4 | SHC1 Expression (Alone): 1.2 and 1.0 | SIRT1 Expression (Alone): −1.2 | SLK Expression (Alone): −1.0 | SMAD1 Expression (Alone): 1.2 | SNCG Expression (Alone): 1.4 | SOD1 Expression (Alone): −1.0 | SOD2 Expression (Alone): 1.1 and 1.0 | SPARC Expression (Alone): −1.2 | SPP1 Expression (Alone): −2.7 | SPRR1B Expression (Alone): 1.0 | SRI Expression (Alone): −1.0 | STAT5A Expression (Alone): −1.0
